From patent US8008340B2, “3-arylthioindole-2-carboxamide derivatives and analogs thereof as inhibitors of casein kinase I” (Aventis Pharmaceuticals Inc., priority 2004, dated 2011) come the findings set out here.

In data set [1] the target is T1, casein kinase 1ε (Homo sapiens, UniProt P49674).
T1 construct: made in house
Briefly: Casein Kinase Epsilon 33P-ATP Filter Plate Assay. Format: biochemical. As to conditions: phosphorylation of casein, 33P-ATP with 10 μM cold ATP, 2 hours at room temperature; * denotes average of two or more determinations; read-out: CKIε Inhibition IC50. The procedure: Casein Kinase Epsilon ^33P-ATP Filter Plate Assay for Screening CK1ε Inhibitors Purpose: This assay measures the effect of compounds to inhibit the phosphorylation of the substrate casein by the enzyme casein kinase 1ε using an in vitro ^33P-ATP filtration assay. Compounds are tested at five concentrations in duplicate in order to generate IC50 values or % inhibition at a 10 micromolar concentration that are summarized in Table 4.
Enzyme: • Casein Kinase 1ε final concentration 0.58 mg/ml obtained from fermentation and purification processes as are well known to one skilled in the art. The above are stored as 100 μL aliquots at minus 80° C.
Compounds: • Compounds for testing are supplied as frozen 10 mM compound stock dissolved in 100% DMSO. Assay Conditions:
Final total assay volume per well is equal to 50 μL made up as follows: • 5 μL of diluted compound stock (10, 1, 0.1, 0.01 or 0.001 μM), • 5 μL of dephosphorylated casein final concentration 0.2 μg/μL, • 20 μL of CK1ε final concentration 3 ng/μL, and • 20 μL of γ-^33P-ATP final concentration 0.02 μCi/μL mixed with cold ATP (10 μM final). Methodology: • 1. 500 mL of fresh assay buffer is made: 50 mM Tris pH 7.5, 10 mM MgCl2, 2 mM DTT and 1 mM EGTA • 2. Compounds to be evaluated are obtained as 10 μL of 10 mM stock dissolved in 100% DMSO. Using a Biomek 2000 liquid handling robot, serial dilutions are made to yield 10, 1, 0.1, 0.01 and 0.001 μM final compound dilutions added as 5 μL additions to Falcon U bottom plates. Typically 8 compounds are tested per 96 well plate with column 1 and 12 serving as control wells. A routine screening assay will consist of 32 compounds, which equals 4 assay plates. • 3. Assay plate maps are set up according to the following pattern CKlePlateMap.xls
• 4. Once 5 μL of compound has been added as indicated, 5 μL of dephosphorylated casein (dissolved in distilled H2O)(0.2 μg/μL) and 20 μL CK1ε (3 ng/μL) are added to the appropriate wells. • 5. Finally 20 μL γ-^33P-ATP (0.02 μCi/μL)/10 μM cold ATP are added (equals approximately 2×10^6 CPM per well). • 6. The Falcon U-Bottom assay plate containing the above 50 μL reaction volume is vortexed and then incubated at room temperature for 2 hours. • 7. At the end of 2 hours, the reaction is stopped by the addition of 65 μL of ice cold 2 mM cold ATP (made up in assay buffer) to the assay plates using a Beckman Multimek • 8. At the same time 25 μL 100% ice cold TCA made up in distilled H2O is added to a matching number of Millipore MAPH filter plates. • 9. Using a handheld 8-channel pipettor, 100 μL of the reaction mixture is transferred from the Falcon U-Bottom Plate to the Millipore MAPH filter plates presoaked with TCA. • 10. The Millipore MAPH filter plates are mixed gently and allowed to sit at room temperature for at least 30 minutes to precipitate the proteins. • 11. After 30 minutes the filter plates are placed on a Millipore vacuum manifold and filtered at no more than 8 mm Hg as the MAPH filters tend to “air lock” at higher vacuum settings. • 12. The filter plates are sequentially washed and filtered with 2×150 μL 20% TCA, 2×150 μL 10% TCA and 2×150 μL 5% TCA (total of 6 washes per plate/900 μL per well). • 13. Plates are allowed to dry overnight at room temperature. The next day 40 μL Packard Microscint-20 Scintillation Fluid is added per well using a Titertek Multidrop dispenser; the plates are sealed and counted for 2 minutes/well in a Packard Topcount NXT Scintillation Counter (CPM values/well are captured).
Calculation: • 1. Counts Per Minute (CPM) data is captured and imported into a proprietary data calculation and archiving database (Activity Base by IDBS version 5.0). • 2. Column 1 for each plate reflects total phosphorylation activity of the enzyme in the absence of any inhibiting compound and thus represents 100%. Column 12 reflects any nonspecific phosphorylation/retained radioactivity activity in the absence of inhibiting compound and enzyme. […]

The test system of data set [2] is Mper1-luc Rat-1 fibroblasts (P2C4). Briefly: Cellular Circadian Assay (Mper1-luc reporter, period lengthening). Format: cell-based. The settings on record: effective micromolar concentration that induced a 1 hour lengthening of period. The text has this:
U.S. Pat. No. 6,555,328 B1 discloses screening methods in cells to identify compounds that alter circadian rhythms based on a test compound altering the ability of human casein kinase 1ε and/or human casein kinase 1δ to phosphorylate the human clock proteins hPER1, hPER2 and hPER3. For example, HEK293T cells are co-transfected with hCKIε and Per1 or Per2. For the purpose of evaluating the relevancy of CKIε inhibition and CKIε inhibitors to circadian biology, a high-throughput cellular assay (33rd Annual Meeting, Soc. for Neurosci., Nov. 8-12, 2003, Abstract numbers 284.1, 284.2, and 284.3) was developed in which circadian rhythm could be monitored in a routine manner. The assay consists of Rat-1 fibroblasts stably expressing an Mper1-luc construct, thus enabling the determination of the rhythmic activation of the Mper1 promoter in living cells by repeatedly estimating luciferase activity by monitoring light-output over several days. The repeated measure format of the assay permits accurate and reproducible assessment of the concentration-dependent effects of CKIε inhibitors on circadian rhythm and provides the nexus for relating CKIε inhibition to circadian period alteration.
Cell culture: Mper1-luc Rat-1 fibroblasts (P2C4) cultures were split every 3-4 days (˜10-20% confluence) onto 150 cm^2 vented polystyrene tissue culture flasks (Falcon #35-5001) and maintained in growth media [EMEM (Cellgro #10-010-CV); 10% fetal bovine serum (FBS; Gibco #16000-044); and 50 I.U./mL penicillin-streptomycin (Cellgro #30-001-C1)] at 37° C. and 5% CO2. […] Zeocin-resistant stable transfectants were assessed for reporter expression by supplementing growth media with 100 μM luciferin (Promega #E1603) and assaying luciferase activity on a TopCount scintillation counter (Packard Model #C384V00). Rat-1 clones expressing both Zeocin-resistance and mPer1-driven luciferase activity were synchronized by 50% horse serum [HS (Gibco #16050-122)] serum shock and assessed for circadian reporter activity. […]

T1 sequence (P49674 whole entry): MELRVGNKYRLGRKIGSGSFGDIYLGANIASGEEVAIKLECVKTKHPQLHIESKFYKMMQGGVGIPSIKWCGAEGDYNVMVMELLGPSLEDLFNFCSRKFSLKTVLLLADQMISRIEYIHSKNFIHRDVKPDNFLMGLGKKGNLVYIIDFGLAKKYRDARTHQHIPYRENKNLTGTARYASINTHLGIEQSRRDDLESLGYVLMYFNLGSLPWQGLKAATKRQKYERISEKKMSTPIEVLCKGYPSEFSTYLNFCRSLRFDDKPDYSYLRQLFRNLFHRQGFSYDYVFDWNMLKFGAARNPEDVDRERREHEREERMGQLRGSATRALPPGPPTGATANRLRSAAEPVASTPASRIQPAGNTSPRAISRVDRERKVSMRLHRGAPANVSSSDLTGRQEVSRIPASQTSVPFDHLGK

By IC50 is commonly meant the concentration needed to halve the response being measured. `NC(=O)c1[nH]c2ccc(Cl)cc2c1S(=O)(=O)c1ccccc1` [Ia, 3-Benzensulfonyl-5-chloro-1H-indole-2-carboxylic acid amide]: the IC50 in data set [1] was more than 10 µM.

Broadly, the melting point is the temperature, or range, at which the solid turns liquid. With `O=C(c1[nH]c2ccc(F)cc2c1Sc1ccccn1)N1CCCC1` [Iaf, [5-Fluoro-3-(pyridin-2-ylsulfanyl)-1H-indol-2-yl]-pyrrolidin-1-yl-methanone], the melting point is 254 to 255 °C.

In turn, `O=C(c1[nH]c2ccccc2c1Sc1ccccn1)N1CCCC1` [Iag, [3-(Pyridin-2-ylsulfanyl)-1H-indol-2-yl]-pyrrolidin-1-yl-methanone] gave a melting point of 213 to 214 °C.

With `NC(=O)c1[nH]c2ccccc2c1S(=O)(=O)c1ccccc1` [Ib, 3-Benzensulfonyl-1H-indole-2-carboxylic acid amide], the IC50 in data set [1] was determined as 2.7 µM.

The compound `NC(=O)c1[nH]c2ccccc2c1Sc1ccccc1` [Ic, 3-Phenylsulfanyl-1H-indole-2-carboxylic acid amide] had a melting point of 197 to 197.5 °C. For the same compound, the IC50 in data set [1] is 3.1 µM.

For the compound `NC(=O)c1[nH]c2ccc(Br)cc2c1Sc1ccccc1` [Id, 5-Bromo-3-phenylsulfanyl-1H-indole-2-carboxylic acid amide], in data set [1], the IC50 worked out at 0.42 µM.

With `COc1ccc2[nH]c(C(N)=O)c(Sc3ccccc3N)c2c1` [Ie, 3-(2-Amino-phenylsulfanyl)-5-methoxy-1H-indole-2-carboxylic acid amide], the “Cell Assay ECΔτ+1h” value in data set [2] is more than 10 µM. In addition, the IC50 in data set [1] was 0.18 µM.

Take `NC(=O)c1[nH]c2ccccc2c1Sc1cccc(F)c1` [If, 3-(3-Fluoro-phenylsulfanyl)-1H-indole-2-carboxylic acid amide]: the “Cell Assay ECΔτ+1h” value in data set [2] was found to be 1.6 µM. Besides, in data set [1], the IC50 was 0.43 µM.

For `NC(=O)c1[nH]c2ccccc2c1Sc1ccccc1N` [Ih, 3-(2-Amino-phenylsulfanyl)-1H-indole-2-carboxylic acid amide], the IC50 in data set [1] was 0.08 µM.

For the compound `NC(=O)c1[nH]c2ccccc2c1Sc1ccccn1` [Ii, 3-(Pyridin-2-ylsulfanyl)-1H-indole-2-carboxylic acid amide], the IC50 in data set [1] worked out at 187 µM.

As to `CNC(=O)c1[nH]c2ccccc2c1Sc1ccccc1` [Ij, 3-Phenylsulfanyl-1H-indole-2-carboxylic Acid Methylamide], the IC50 in data set [1] is more than 10 µM.

As for `CNC(=O)c1[nH]c2ccccc2c1Sc1ccccn1` [Ik, 3-(Pyridin-2-ylsulfanyl)-1H-indole-2-carboxylic acid methylamide], the IC50 in data set [1] is more than 10 µM.

For `NC(=O)c1[nH]c2ccccc2c1Oc1ccccc1` [Il, 3-Phenoxy-1H-indole-2-carboxylic acid amide], the IC50 in data set [1] was more than 10 µM.

For the compound `COc1ccc(Oc2c(C(N)=O)[nH]c3ccccc23)cc1` [Im], in data set [1], the IC50 amounted to 5.8 µM.

On to `NC(=O)c1[nH]c2ccccc2c1Oc1ccc(F)cc1` [In], for which the IC50 in data set [1] was 0.89 µM.

`NC(=O)c1[nH]c2ccccc2c1Oc1ccccc1F` [Io]: the IC50 in data set [1] was 2.4 µM.

On to `NC(=O)c1[nH]c2ccccc2c1Oc1ccc(Cl)cc1` [Ip], for which the IC50 in data set [1] was determined as 2.8 µM.

As for `COc1c(C(N)=O)[nH]c2ccccc12` [Iq, 3-Methoxy-1H-indole-2-carboxylic acid amide], the IC50 in data set [1] is 13.5 µM.

In the case of `CCOc1c(C(N)=O)[nH]c2ccccc12` [Ir, 3-Ethoxy-1H-indole-2-carboxylic acid amide], in data set [1], the IC50 is 8.7 µM.

Regarding `CC(C)Oc1c(C(N)=O)[nH]c2ccccc12` [Is, 3-Isopropoxy-1H-indole-2-carboxylic acid amide], the IC50 in data set [1] was determined as 8.9 µM.

As for `CC(C)(C)Oc1c(C(N)=O)[nH]c2ccccc12` [It, 3-tert-Butoxy-1H-indole-2-carboxylic acid amide], the IC50 in data set [1] came out at 11.7 µM.

For `NC(=O)c1[nH]c2ccccc2c1OCc1ccccc1` [Iu, 3-Benzyloxy-1H-indole-2-carboxylic acid amide], the 50% inhibitory concentration (IC50) in data set [1] was 9.9 µM.

In the case of `Cc1ccc(Sc2c(C(=O)N3CCCC3)[nH]c3ccc(F)cc23)cc1` [Iw, (5-Fluoro-3-p-tolylsulfanyl-1H-indol-2-yl)-pyrrolidin-1-yl-methanone], the melting point lay within 254 to 255 °C.

As to `O=C(c1[nH]c2ccccc2c1Sc1ccccc1)N1CCCCC1` [Ix, (3-Phenylsulfanyl-1H-indol-2yl)-piperidin-1-yl-methanone], the melting point was in the range of 161 to 162 °C.

`O=C(c1[nH]c2ccc(F)cc2c1Sc1ccccc1)N1CCCC1` [Iy, (5-Fluoro-3-phenylsulfanyl-1H-indol-2-yl)-pyrrolidin-1-yl-methanone]: the melting point lay within 254 to 255 °C.
